The numbers were not newly measured in patent US5834196A, “Method for detecting and/or optionally quantifying and/or separating apoptotic cells in or from a sample” (Nexins Research B.V., priority 1994, dated 1998), which cites them from elsewhere.

The term Kd denotes the concentration at which binding is half-saturated.

In the data set the target is annexin V. The note with it: phosphatidyl serine containing membranes; Ca^2+ dependent binding; given as an estimation.

Consider phosphatidyl serine, for which the Kd is less than 100 pM.
